Reference: patent US5840721A, “Imidazole derivatives as MDR modulators” (Ontogen Corporation, priority 1997, dated 1998)

The molecules below were run on CEM/VLB1000 cell line (assay: [3H]VLB accumulation in CEM/VLB1000 cells). Conditions: Homo sapiens, midpoint of minimum and maximum increase in accumulation of 3H-vinblastine (275 nM), 3 hours at 37° C.
Type: cell-based
Protocol: ^3 H-vinblastine accumulation was also measured in the CEM/VLB1000 cell line. Corning Easy-Wash 96 well plates were pretreated with PBS and 1% BSA for 60 minutes and then removed. CEM/VLB1000 cells were seeded at 2×10^5, 40 μL volume. Plates were incubated at 37° C. for 30-60 minutes prior to use. The reference reversing agent, verapamil, or the compound of the present invention was added to the well followed by addition of media containing ^3 H-vinblastine (final concentration=275nM). Plates were allowed to incubate for 3 hours at 37° C. Cells were harvested onto pretreated Wallace filtermats A (pretreated with 0.1% polyethyleneimine) using a TomTek harvester-96. After filtering, the filtermats were allowed to dry completely. Meltix B scintillant was then added to the filtermats. The filters were then placed in a 90° C. oven for approximately 3-5 minutes and then removed. Scintillant was allowed to solidify on the filtermats. Filtermats were then placed in sample bags and read on a Wallace BetaPlate scintillation counter. The effects of compounds of the present invention in the cytotoxicity potentiation assays and vinblastine (VLB) accumulation assay are given in the Table below:
^2 Values presented are the midpoint (EC50 ) of the minimum and
maximum increase in accumulation of ^3 Hvinblastine caused by the
specfic compound of the present invention.

EC50 [nM]	SMILES
1700	CN(C)C(=O)/C=C/c1ccc(-c2nc(-c3ccc(N(C)C)cc3)c(-c3ccc(N(C)C)cc3)[nH]2)cc1 [Example 111]
1200	CN(C)c1ccc(-c2nc(-c3ccc(/C=C/COCc4ccccc4)cc3)[nH]c2-c2ccc(N(C)C)cc2)cc1 [Example 77, 2-[4-(3-benzyloxy-trans-1-propen-1-yl)phenyl]-4,5-bis (4-N,N-dimethylaminophenyl) imidazole]

These molecules were tested on CEM/VLB1000 cell line (assay: Cytotoxicity potentiation: enhancement of vinblastine cytotoxicity in MDR cell line (alamar blue)). Conditions: Homo sapiens, midpoint of minimum and maximum cytotoxicity induced by 3-5 μg/mL vinblastine and compound, 48 hours incubation, alamar blue 24 hours, read-out: Cytotocicity Potentiation (EC50).
Type: cell-based, human
Protocol: Multidrug-resistant cell lines are easily obtainable for in vitro determination of drug sensitization by compounds of the present invention. In vitro potentiation of antineoplastic cytotoxicity by the imidazole derivatives of the present invention was measured in both CEM/VLB1000 and SK/VLB1000 cell lines. The multidrug resistant cell lines were obtained from Dr. Victor Ling, Ontario Cancer Institute, Toronto, Canada. The CEM/VLB 1000 cell line was maintained as a suspension in minimum essential medium supplemented with 10% fetal bovine serum in a humidied atmosphere of 95% air and 5% CO2 while the SK/VLB 1000 cell line was maintained as adherent cells using the identical medium conditions as the CEM cells. The CEM/VLB 1000 cells were seeded at a density of 5×10^4 cells/well in a 96 well microtiter plate while the SK/VLB 1000 cell line was seeded at a density of 2,500 cells/well after trypsinization.

SMILES	EC50 [nM]
CN(C)C(=O)/C=C/c1ccc(-c2nc(-c3ccc(N(C)C)cc3)c(-c3ccc(N(C)C)cc3)[nH]2)cc1 [Example 111]	620
CN(C)c1ccc(-c2nc(-c3ccc(/C=C/COCc4ccccc4)cc3)[nH]c2-c2ccc(N(C)C)cc2)cc1 [Example 77, 2-[4-(3-benzyloxy-trans-1-propen-1-yl)phenyl]-4,5-bis (4-N,N-dimethylaminophenyl) imidazole]	340
CCOC/C=C/c1ccc(-c2nc(-c3ccc(N4CCCC4)cc3)c(-c3ccc(N4CCCC4)cc3)[nH]2)cc1 [Example 89, 2-[4-(3-ethoxy-trans-1-propen-1-yl)phenyl]-4,5-bis (4-pyrrolidinophenyl) imidazole]	240
CN(C)C/C=C/c1ccc(-c2nc(-c3ccc(N(C)C)cc3)c(-c3ccc(N(C)C)cc3)[nH]2)cc1 [Example 83, 2-[4-(3-N,N-dimethylamino-trans-1-propen-1-yl)phenyl]-4,5-bis (4-N,N-dimethylaminophenyl) imidazole]	1300
CCOC/C=C/c1ccc(-c2nc(-c3ccc(OC)cc3)c[nH]2)cc1 [Example 109, 2-[4-(3-ethoxy-trans-1-propen-1-yl)phenyl]-4-(4-methoxyphenyl) imidazole]	1850
CNc1ccc(-c2[nH]c(-c3ccc(/C=C/C(=O)OC)cc3)nc2-c2ccc(N(CCOC)CCOC)cc2)cc1 [Example 69, 2-(trans-2-methoxycarbonyl-ethenylphenyl)-4-[4-N,N-di(2methoxyethyl)aminophenyl]-5-(4-N-methylaminophenyl) imidazole]	330
CCOC/C=C/c1ccc(-c2nc(-c3ccc(NC)cc3)c(-c3ccc(N4CCCC4)cc3)[nH]2)cc1 [Example 91, 2-[4-(3-ethoxy-trans-1-propen-1-yl)phenyl]-4-(4-N-methylaminophenyl)-5(4-pyrrolidinophenyl) imidazole]	110
CCOC/C=C/c1ccc(-c2nc(-c3ccc(N(C)C)cc3)c(-c3ccc(N4CCCC4)cc3)[nH]2)cc1 [Example 90, 2-[4-(3-ethoxy-trans-1-propen-1-yl)phenyl]-4-(4-N-dimethylaminophenyl)-5-(4-pyrrolidinophenyl) imidazole]	120
CCOC/C=C/c1ccc(-c2nc(-c3ccc(N(CC)CC)cc3)c(-c3ccc(NC)cc3)[nH]2)cc1 [Example 87, 2-[4-(3-ethoxy-trans-1-propen-1-yl)phenyl]-4-(4-N,N-diethylaminophenyl)5-(4-N-methylaminophenyl) imidazole]	60
CNc1ccc(-c2nc(-c3ccc(/C=C/C(=O)OC)cc3)[nH]c2-c2ccc(N3CCCCC3)cc2)cc1 [Example 68, 2-(trans-2-methoxycarbonyl-ethenylphenyl) -4-(4-N-methylaminophenyl)5-(4-piperidinophenyl) imidazole]	390
CNc1ccc(-c2[nH]c(-c3ccc(/C=C/c4nc5ccccc5o4)cc3)nc2-c2ccc(N(C)C)cc2)cc1 [Example 57, 2-[trans-2-(2-benzoxazolyl)ethenylphenyl]-4-(4-N,N-dimethylaminophenyl)-5-(4-N-methylaminophenyl) imidazole]	210
CCOC/C=C/c1ccc(-c2nc(-c3ccc(N4CCN(CC)CC4)cc3)c[nH]2)cc1 [Example 126, 2-[4-(3-ethoxy-trans-1-propen-1-yl)phenyl]-4-[4-N-(N'-ethyl)piperizanophenyl) imidazole]	710
CNc1ccc(-c2nc(-c3ccc(/C=C/c4nc5ccccc5o4)cc3)[nH]c2-c2ccc(N3CCCC3)cc2)cc1 [Example 60, 2-[trans-2-(2-benzoxazolyl)ethenylphenyl]-4-(4-N-methylaminophenyl)-5-(4-pyrrolidinophenyl) imidazole]	450
CCOC/C=C/c1ccc(-c2nc(-c3ccc(NCC(C)C)cc3)c[nH]2)cc1 [Example 124, 2-[4-(3-ethoxy-trans-1-propen-1-yl)phenyl]-4-(4-N-isobutylphenyl) imidazole]	250
CCOC/C=C/c1ccc(-c2nc(-c3ccc(OC(C)C)cc3)c(-c3ccc(OC(C)C)cc3)n2CCCn2ccnc2)cc1 [Example 107, 1-(3-imidazole-1-yl-propyl)-2-[4-(3-ethoxy-trans-1-propen-1-yl)phenyl]-4,5bis (4-diisopropyloxyphenyl) imidazole]	490
CCN(CC)Cc1ccc(-c2nc(-c3ccc(/C=C/C(=O)OC)cc3)[nH]c2-c2ccc(CN(CC)CC)cc2)cc1 [Example 100, 2-[4-trans-(2-methoxycarbonyl-ethenyl)phenyl]-4,5-bis (4-N,N-diethylaminomethylphenyl) imidazole]	3400
CNc1ccc(-c2[nH]c(-c3ccc(/C=C/c4nc5ccccc5s4)cc3)nc2-c2ccc(N(C)C)cc2)cc1 [Example 63, 2-[trans-2-(2-benzthiazolyl)ethenylphenyl]-4-(4-N-dimethylaminophenyl)-5-(4-N-methylaminophenyl) imidazole]	320
CN(C)c1ccc(-c2nc(-c3ccc(/C=C/COC(=O)C(C)(C)C)cc3)[nH]c2-c2ccc(N(C)C)cc2)cc1 [Example 115, 2-[4-(3-pivalate-trans-1-propen-1-yl)phenyl]-4,5-bis (4-N,N-dimethylaminophenyl) imidazole]	480
CCN(CC)Cc1ccc(-c2[nH]c(-c3ccc(/C=C/C(=O)OC)cc3)nc2-c2ccc(C)cc2)cc1 [Example 99, 2-[4-trans-(2-methoxycarbonyl-ethenyl)phenyl]-4-(p-tolyl)-5-(4-N,N-diethylaminomethylphenyl) imidazole]	290
CCOC/C=C/c1ccc(-c2nc(-c3ccc(N(CC)CC)cc3)c(-c3ccc(N(CC)CC)cc3)[nH]2)cc1 [Example 86, 2-[4-(3-ethoxy-trans-1-propen-1-yl)phenyl]-4,5-bis (4-N,N-diethylaminophenyl) imidazole]	260
COCCNc1ccc(-c2[nH]c(-c3ccc(/C=C/c4nc5ccccc5o4)cc3)nc2-c2ccc(N(C)C)cc2)cc1 [Example 61, 2-[trans-2-(2-benzoxazolyl)ethenylphenyl]-4-(4-N,N-dimethylaminophenyl)-5-[4-(2-methoxyethylamino)phenyl] imidazole]	160
CCOC/C=C/c1ccc(-c2nc(-c3ccc(OCC)cc3)c(-c3ccc(OCC)cc3)[nH]2)cc1 [Example 103, 2-[4-(3-ethoxy-trans-1-propen-1-yl)phenyl]-4,5-bis (4-diethoxyphenyl) imidazole]	240
CCOC/C=C/c1ccc(-c2nc(-c3ccc(N4CCOCC4)cc3)c(C)[nH]2)cc1 [Example 127, 2-[4-(3-ethoxy-trans-1-propen-1-yl)phenyl]-4-(4-N-morpholinophenyl)-5methyl-imidazole]	330
CCOC/C=C/c1ccc(-c2nc(-c3ccc(NC(C)C)cc3)c(-c3ccc(NC)cc3)[nH]2)cc1 [Example 95, 2-[4-(3-ethoxy-trans-1-propen-1-yl)phenyl]-4-(4-N-methylaminophenyl)-5-(4-N-isopropylaminophenyl) imidazole]	50
CN(C)c1ccc(-c2nc(-c3ccc(/C=C/C#N)cc3)[nH]c2-c2ccc(N(C)C)cc2)cc1 [Example 64, 2-[trans-2-(2-cyano)ethenylphenyl]-4,5-(4-N,N-dimethylaminophenyl) imidazole]	550
CCOC/C=C/c1ccc(-c2nc(-c3ccc(NC(C)C)cc3)c[nH]2)cc1 [Example 123, 2-[4-(3-ethoxy-trans-1-propen-1-yl)phenyl]-4-(4-N-isopropylphenyl) imidazole]	340
CCOC/C=C/c1ccc(-c2nc(-c3ccc(N(C)C)cc3)c(-c3ccc(NC)cc3)[nH]2)cc1 [Example 76, 2-[4-(3-ethoxy-trans-1-propen-1-yl)phenyl]-4-(4-N-dimethylaminophenyl)-5-(4-N-methylaminophenyl) imnidazole]	110
CCOC/C=C/c1ccc(-c2nc(-c3ccc(N4CCOCC4)cc3)c[nH]2)cc1 [Example 125, 2-[4-(3-ethoxy-trans-1-propen-1-yl)phenyl]-4-(4-N-morpholinophenyl) imidazole]	370
CN(C)c1ccc(-c2nc(-c3ccc(/C=C/c4nc5ccccc5s4)cc3)[nH]c2-c2ccc(N(C)C)cc2)cc1 [Example 62, 2-[trans-2-(2-benzthiazolyl)ethenylphenyl]-4,5-bis (4-N,N-dimethylaminophenyl) imidazole]	1030
COC(=O)[C@@H]1C[C@H]1c1ccc(-c2nc(-c3ccc(N(C)C)cc3)c(-c3ccc(N(C)C)cc3)[nH]2)cc1 (relative stereo) [Example 101]	200
